Assays:
SW-620 = assay: Antiproliferative activity against human SW-620 cells assessed as reduction in cell proliferation by CellTiter-Glo luminescent cell viability assay; type: functional
HCT-116 = assay: Antiproliferative activity against human HCT-116 cells assessed as reduction in cell proliferation by CellTiter-Glo luminescent cell viability assay; type: functional
DU-145 = assay: Antiproliferative activity against human DU-145 cells assessed as reduction in cell proliferation by CellTiter-Glo luminescent cell viability assay; type: functional
MOLM-13 = assay: Antiproliferative activity against human MOLM-13 cells assessed as reduction in cell proliferation by CellTiter-Glo luminescent cell viability assay; type: functional; conditions: Homo sapiens, MOLM-13
MV4-11 = assay: Antiproliferative activity against human MV4-11 cells assessed as reduction in cell proliferation by CellTiter-Glo luminescent cell viability assay; type: functional; conditions: Homo sapiens, MV4-11
MDA-MB-231 = assay: Antiproliferative activity against human MDA-MB-231 cells assessed as reduction in cell proliferation by CellTiter-Glo luminescent cell viability assay; type: functional
[1] = target: T1, Serine/threonine-protein kinase haspin (Homo sapiens, UniProt Q8TF76); assay: Inhibition of GST-tagged recombinant human haspin kinase domain incubated for 60 mins by ADP-Glo luminescent kinase assay
T1 sequence (Q8TF76 whole entry): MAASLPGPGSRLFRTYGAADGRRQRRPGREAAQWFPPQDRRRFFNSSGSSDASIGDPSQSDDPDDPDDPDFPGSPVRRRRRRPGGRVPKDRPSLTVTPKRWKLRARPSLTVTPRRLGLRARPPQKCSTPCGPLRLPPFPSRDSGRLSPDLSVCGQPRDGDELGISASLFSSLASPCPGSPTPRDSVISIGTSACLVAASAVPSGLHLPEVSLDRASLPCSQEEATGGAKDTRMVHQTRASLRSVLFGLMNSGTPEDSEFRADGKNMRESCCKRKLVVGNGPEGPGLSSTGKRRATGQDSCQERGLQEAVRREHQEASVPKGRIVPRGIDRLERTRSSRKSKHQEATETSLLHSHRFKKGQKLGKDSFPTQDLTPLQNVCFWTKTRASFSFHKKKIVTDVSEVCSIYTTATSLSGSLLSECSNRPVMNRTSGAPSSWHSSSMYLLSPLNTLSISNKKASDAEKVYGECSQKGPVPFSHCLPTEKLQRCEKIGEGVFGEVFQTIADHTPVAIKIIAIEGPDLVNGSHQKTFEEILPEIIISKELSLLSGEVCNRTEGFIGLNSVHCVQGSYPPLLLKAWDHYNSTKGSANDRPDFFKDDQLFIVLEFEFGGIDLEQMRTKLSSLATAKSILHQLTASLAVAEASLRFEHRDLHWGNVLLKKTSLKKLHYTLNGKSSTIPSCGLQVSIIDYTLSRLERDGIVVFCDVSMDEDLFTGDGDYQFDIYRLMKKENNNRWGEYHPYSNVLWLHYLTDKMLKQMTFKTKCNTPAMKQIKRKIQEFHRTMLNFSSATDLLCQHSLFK

CDK8/Cyclin C = CDK8/Cyclin C (Homo sapiens, UniProt P49336); assay: Inhibition of kinase tracer 236 binding to full-length His-tagged recombinant human CDK8/cyclin C incubated for 60 mins by FRET based LanthaScreen Eu-Kinase binding assay; type: protein-complex assay
Sequence of CDK8/Cyclin C (P49336 whole entry): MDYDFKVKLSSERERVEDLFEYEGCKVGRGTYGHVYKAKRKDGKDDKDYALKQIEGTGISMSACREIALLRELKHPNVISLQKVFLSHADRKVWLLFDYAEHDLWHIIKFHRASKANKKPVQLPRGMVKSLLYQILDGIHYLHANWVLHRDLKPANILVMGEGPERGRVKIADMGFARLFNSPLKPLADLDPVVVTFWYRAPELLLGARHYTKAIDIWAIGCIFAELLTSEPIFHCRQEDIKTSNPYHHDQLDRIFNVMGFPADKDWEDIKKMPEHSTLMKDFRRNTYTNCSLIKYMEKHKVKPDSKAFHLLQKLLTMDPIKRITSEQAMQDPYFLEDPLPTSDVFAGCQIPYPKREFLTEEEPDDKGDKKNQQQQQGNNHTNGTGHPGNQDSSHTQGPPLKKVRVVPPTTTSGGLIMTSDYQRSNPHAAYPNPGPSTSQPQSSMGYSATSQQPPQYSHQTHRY
Sequence of CDK8/Cyclin C (P24863 whole entry, further chain): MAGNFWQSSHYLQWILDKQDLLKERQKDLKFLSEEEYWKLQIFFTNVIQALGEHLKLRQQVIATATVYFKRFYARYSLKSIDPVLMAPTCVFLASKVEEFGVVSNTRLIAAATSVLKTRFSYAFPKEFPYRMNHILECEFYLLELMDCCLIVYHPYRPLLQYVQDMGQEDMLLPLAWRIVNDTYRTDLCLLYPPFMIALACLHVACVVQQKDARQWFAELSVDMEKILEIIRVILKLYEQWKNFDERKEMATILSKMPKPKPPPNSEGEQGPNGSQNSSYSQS

[2] = target: T2, Serine/threonine-protein kinase haspin (Homo sapiens) (UniProt Q8TF76); assay: Inhibition of haspin in synchronized human SW620 cells assessed as reduction in IFNgamma-induced H3T3 phosphorylation pre-incubated for 1 hr before IFNgamma stimulation for 3 hrs by Western blot analysis; type: cell-based; conditions: SW-620, time 4.0 hrs
T2 sequence (whole entry): T1 sequence (Q8TF76 whole entry)

[3] = target: T2, Serine/threonine-protein kinase haspin (Homo sapiens); assay: Inhibition of haspin in human SW620 cells assessed as reduction in IFNgamma-induced H3T3 phosphorylation pre-incubated for 1 hr before IFNgamma stimulation for 3 hrs by Western blot analysis; type: cell-based; conditions: SW-620, time 4.0 hrs
[4] = target: T3, Cyclin-dependent kinase 8 (Homo sapiens, UniProt P49336); assay: Inhibition of CDK8 in human SW-620 cells assessed as reduction in IFNgamma-induced STAT1 S727 phosphorylation pre-incubated for 1 hr before IFNgamma stimulation for 3 hrs by Western blot analysis; type: cell-based; conditions: time 4.0 hrs
T3 sequence (P49336 whole entry): as the sequence (P49336 whole entry) above

[5] = target: T3, Cyclin-dependent kinase 8; assay: Inhibition of CDK8 in human SW-620 cells assessed as reduction in STAT1 S727 phosphorylation pre-incubated for 1 hr before IFNgamma stimulation for 3 hrs by Western blot analysis; type: cell-based; conditions: time 4.0 hrs
SK-MEL19 = assay: Antiproliferative activity against human SK-MEL19 cells assessed as reduction in cell proliferation by CellTiter-Glo luminescent cell viability assay; type: functional
BXPC-3 = assay: Antiproliferative activity against human BXPC-3 cells assessed as reduction in cell proliferation by CellTiter-Glo luminescent cell viability assay; type: functional
[6] = target: Cyclin-C/Cyclin-dependent kinase 19 (Homo sapiens, UniProt Q9BWU1); assay: Inhibition of kinase tracer 236 binding to full-length His-tagged recombinant human CDK19/cyclin C incubated for 60 mins by FRET based LanthaScreen Eu-Kinase binding assay; type: protein-complex assay
Sequence of Cyclin-C/Cyclin-dependent kinase 19 (Q9BWU1 whole entry): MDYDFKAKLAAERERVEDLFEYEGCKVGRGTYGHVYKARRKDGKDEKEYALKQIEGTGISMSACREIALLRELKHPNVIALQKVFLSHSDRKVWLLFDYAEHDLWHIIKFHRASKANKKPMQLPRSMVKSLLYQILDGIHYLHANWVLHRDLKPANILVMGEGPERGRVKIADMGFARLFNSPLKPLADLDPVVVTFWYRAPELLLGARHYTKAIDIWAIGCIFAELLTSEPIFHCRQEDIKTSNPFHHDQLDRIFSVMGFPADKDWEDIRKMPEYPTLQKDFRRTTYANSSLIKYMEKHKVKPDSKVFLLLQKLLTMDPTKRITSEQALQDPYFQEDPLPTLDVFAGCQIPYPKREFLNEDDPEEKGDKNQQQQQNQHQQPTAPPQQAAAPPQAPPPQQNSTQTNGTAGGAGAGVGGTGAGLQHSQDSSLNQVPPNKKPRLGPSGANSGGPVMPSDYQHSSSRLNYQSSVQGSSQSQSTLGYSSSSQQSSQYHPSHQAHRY
Sequence of Cyclin-C/Cyclin-dependent kinase 19 (P24863 whole entry, further chain): as the sequence (P24863 whole entry, further chain) above

A549 = assay: Antiproliferative activity against human A549 cells assessed as reduction in cell proliferation by CellTiter-Glo luminescent cell viability assay; type: functional

## COc1cc(Nc2ncc3c(n2)-c2ccc(Cl)cc2C(c2c(F)cccc2OC)=NC3)ccc1C(=O)O [ALISERTIB]
SW-620; Homo sapiens, SW-620
  GI50: 500 nM
HCT-116
  GI50: 12500 nM
DU-145
  GI50: 12500 nM

## NC(=O)c1cc2c([nH]1)-c1ccncc1OC2C1CCOCC1 (stereo in doubt; form 1)
SW-620
  GI50: 1000 nM
MOLM-13
  GI50: 1000 nM
MV4-11
  GI50: < 1000 nM
MDA-MB-231
  GI50: 1000 nM
[1]
  IC50: 5760 nM
CDK8/Cyclin C
  IC50: 281 nM

## CCn1c(C(N)=O)c(-c2ccccc2OC)c2c1-c1ccncc1OC2(C)C
SW-620; Homo sapiens, SW-620
  GI50: 10000 nM
MOLM-13
  GI50: < 1000 nM
MV4-11
  GI50: < 1000 nM
MDA-MB-231; Homo sapiens, MDA-MB-231
  GI50: 10000 nM
[2]
  INH: < 500 nM
[3]
  INH: < 500 nM
[4]
  INH: < 500 nM
[5]
  INH: < 500 nM

## NC(=O)c1cc2c(n1CCF)-c1ccncc1OC21CCC1
SW-620; Homo sapiens, SW-620
  GI50: 1000 nM
MOLM-13
  GI50: < 1000 nM
MV4-11
  GI50: < 1000 nM
MDA-MB-231; Homo sapiens, MDA-MB-231
  GI50: 1000 nM
[5]
  INH: < 500 nM

## CCn1c(C(N)=O)cc2c1-c1ccncc1OC21CCN(CC(F)(F)F)CC1
SW-620; Homo sapiens, SW-620
  GI50: 1000 nM
MOLM-13
  GI50: < 1000 nM
MV4-11
  GI50: < 1000 nM
MDA-MB-231; Homo sapiens, MDA-MB-231
  GI50: 1000 nM
[3]
  INH: < 500 nM
[5]
  INH: < 500 nM

## CC1(C)Oc2cnccc2-c2[nH]c(C(N)=O)cc21
MV4-11
  GI50: 1000 nM
MDA-MB-231; Homo sapiens, MDA-MB-231
  GI50: 10000 nM

## Cn1c(C(N)=O)cc2c1-c1ccncc1OC2(C)C
SW-620; Homo sapiens, SW-620
  GI50: 10000 nM
MOLM-13
  GI50: 1000 nM
MV4-11
  GI50: < 1000 nM
MDA-MB-231; Homo sapiens, MDA-MB-231
  GI50: 1000 nM

## CC1(C)Oc2cncc(Cl)c2-c2[nH]c(C(N)=O)cc21
MV4-11
  GI50: < 1000 nM

## CCn1c(C(N)=O)cc2c1-c1ccncc1OC21CCOCC1
SW-620; Homo sapiens, SW-620
  GI50: 1000 nM
MOLM-13
  GI50: < 1000 nM
MV4-11
  GI50: < 1000 nM
MDA-MB-231; Homo sapiens, MDA-MB-231
  GI50: 1000 nM
[3]
  INH: < 500 nM
[5]
  INH: < 500 nM

## CC1(C)Oc2cnccc2-c2c1cc(C(N)=O)n2CCF
SW-620; Homo sapiens, SW-620
  GI50: 1000 nM
MOLM-13
  GI50: < 1000 nM
MV4-11
  GI50: < 1000 nM
MDA-MB-231; Homo sapiens, MDA-MB-231
  GI50: 1000 nM
[2]
  INH: < 500 nM
[3]
  INH: < 500 nM
[4]
  INH: < 500 nM
[5]
  INH: < 500 nM

## C[C@@H](Oc1cc(-c2cnn(C3CCNCC3)c2)cnc1N)c1c(Cl)ccc(F)c1Cl [CRIZOTINIB]
SK-MEL19
  GI50: 5000 nM
SW-620; Homo sapiens, SW-620
  GI50: 1000 nM
HCT-116
  GI50: 5000 nM
DU-145
  GI50: 20000 nM
BXPC-3
  GI50: 5000 nM

## CCn1c(C(N)=O)cc2c1-c1ccncc1OC21CCCCC1 [listing 1 of 2 here]
[3]
  INH: < 500 nM
[5]
  INH: < 500 nM

## COCCn1c(C(N)=O)cc2c1-c1ccncc1OC2(C)C
[2]
  INH: < 500 nM
[4]
  INH: < 500 nM

## NC(=O)c1cc2c([nH]1)-c1ccncc1OC2C1CCCCC1 (centres undefined)
SW-620; Homo sapiens, SW-620
  GI50: < 1000 nM
[6]
  IC50: 87.3 nM
MOLM-13
  GI50: < 1000 nM
MV4-11
  GI50: < 1000 nM
MDA-MB-231; Homo sapiens, MDA-MB-231
  GI50: 1000 nM
[2]
  INH: 500 nM
[4]
  INH: < 500 nM
CDK8/Cyclin C
  IC50: 19.3 nM

## CN(NC(=O)CC(=O)NN(C)C(=S)c1ccccc1)C(=S)c1ccccc1 [ELESCLOMOL]
SK-MEL19
  GI50: 250 nM
SW-620; Homo sapiens, SW-620
  GI50: 250 nM
A549
  GI50: 250 nM
MDA-MB-231; Homo sapiens, MDA-MB-231
  GI50: 250 nM
BXPC-3
  GI50: 62 nM

## CCn1c(C(N)=O)cc2c1-c1ccncc1OC21CCCCC1 [listing 2 of 2 here]
SW-620; Homo sapiens, SW-620
  GI50: 1000 nM
MOLM-13
  GI50: < 1000 nM
MV4-11
  GI50: < 1000 nM
MDA-MB-231; Homo sapiens, MDA-MB-231
  GI50: 1000 nM

## NC(=O)c1cc2c([nH]1)-c1ccncc1OC21CCC1
SW-620; Homo sapiens, SW-620
  GI50: 10000 nM
MOLM-13
  GI50: < 1000 nM
MV4-11
  GI50: < 1000 nM
MDA-MB-231; Homo sapiens, MDA-MB-231
  GI50: 1000 nM
[5]
  INH: < 500 nM

## NC(=O)c1cc2c(n1CCF)-c1ccncc1OC21CCCCC1
SW-620; Homo sapiens, SW-620
  GI50: 1000 nM
MOLM-13
  GI50: < 1000 nM
MV4-11
  GI50: < 1000 nM
MDA-MB-231; Homo sapiens, MDA-MB-231
  GI50: 1000 nM
[3]
  INH: < 500 nM
[5]
  INH: < 500 nM

## NC(=O)c1cc2c([nH]1)-c1ccncc1OC2C1CCOCC1 (stereo in doubt; form 2)
[2]
  INH: 500 nM
[4]
  INH: < 500 nM

## NC(=O)c1cc2c(n1CCF)-c1ccncc1OC21CCOCC1
CDK8/Cyclin C
  IC50: < 1.41 nM
